As usually defined, the Kd is a measure of binding affinity in units of concentration.

We go through three substances from patent US6770738B1, “Higher order structure and binding of peptide nucleic acids” (ISIS Pharmaceuticals, Inc., priority 1992, dated 2004).

What all share (format): binding
One data set has as its system 5′d(AAAAGGAGAG). Nature of the data set: Melting temperature of complex with decamer. As to conditions: pH 7. On the procedure:
(§1) The dimer prepared in Example 53 was incorporated into PNA H-TT(detT-idaT)CCTCTC-LysNH2 (SEQ ID NO:53) generally in accordance with Example 1. The melting temperatures, Tm, of complexes between this PNA and decamers 5′d(AAAAGGAGAG) (SEQ ID NO:54) and 5′d(GAGAGGAAAA) (SEQ ID NO:55) were 55° C. and 43.5° C., respectively, at pH 7. By comparison, the Tm of complexes between PNA H-TTTCCTCTC-LysNH2 (SEQ ID NO:56), prepared generally in accordance with Example 1, and these decamers was 58.5° C. and 40.5° C., respectively, at pH 7.

The next data set concerns 5′d(GAGAGGAAAA). The data set is described as follows: Melting temperature of complex with decamer. As to conditions: pH 7. On the procedure: as §1
Data set [1] deals with complementary RNA. Nature of the data set: Thermodynamics of duplex formation with RNA. On the procedure:
(§2) Thermodynamics parameters for hybridization can be extracted from thermal stability measurements when these are performed at varying concentrations of the complexes, or from the shape of the thermal denaturation curves. Both methods were used to determine ΔH°, ΔS° and ΔG° for formation of the PNA/RNA, DNA/RNA, PNA/DNA and DNA/DNA duplexes (Table III). It is remarkable that the decrease in entropy is almost identical for the formation of DNA/DNA and PNA/DNA duplexes and that both reactions are strongly enthalpy driven.

Data set [2] has as its system RNA target 5′-TAGTTGTGACGTACA-3. The data set is described as follows: Equilibrium and rate constants for duplexes with RNA (gel-shift). The conditions noted are these: [Na+] 0.1 M, 37 ° C.; 100 mM NaCl, 10 mM phosphate, 1 mM EDTA, pH 7.0; gel-shift with 32P-labeled RNA.
The test system of another data set is complementary DNA. The data set is described as follows: Thermodynamics of duplex formation with DNA. On the procedure:
as §2

Data set [3] relates to complementary RNA. Nature of the data set: Melting temperature of complexes with complementary RNA. As to conditions: 100 mM NaCl, 10 mM Na-phosphate, 0.1 mM EDTA, pH 7; 4 μM of each strand. On the procedure: (§3) The thermal stability measured as the melting temperature, Tm, of complexes between the pentadecamer, H-TGTACGTCACAACTA-NH2 (SEQ ID NO:10) and the complementary deoxyoligonucleotide 3′-ACATGCAGTGTTGAT (SEQ ID NO:47) (termed anti-parallel orientation: amino terminal of the PNA complementary to the 3′-end of the oligonucleotide) was 69.5° C. (see Table II), whereas the Tm of the corresponding PNA-DNA complex in parallel orientation was 56.1° C. The Tm for the PNA-RNA complexes was 72.3 and 51.2° C., respectively (see Table II). The orientation preference was further settled by using two decamer PNAs, and hybridizing these to complementary oligonucleotides in both orientations. The anti-parallel orientation was preferred in all cases (see Table II). Furthermore, it is noteworthy that virtually identical Tms were obtained regardless of which strand is the PNA and which is the DNA (see Table II, 2nd & 3rd row).

Data set [4] relates to complementary deoxyoligonucleotide. Nature of the data set: Melting temperature of complexes with complementary DNA. As to conditions: 100 mM NaCl, 10 mM Na-phosphate, 0.1 mM EDTA, pH 7; 4 μM of each strand. On the procedure: as §3
The mark [5] stands for this setting: 8 μM, average of the two methods.
Setting [6] is: 8 μM, fit to modified two state model.
Setting [7] is: 8 μM, linear plots of 1/TM versus log (concentration).
Where [8] appears, read: fit to modified two state model.
The mark [9] stands for this setting: fit to modified two state model, 100 mM NaCl, 10 mM Na-phosphate, 0.1 mM EDTA, pH 7.0.
Where [10] appears, read: linear plots of 1/TM versus log (concentration).

For the substance “H-TT(detT-idaT)CCTCTC-LysNH2 [PNA H-TT(detT-idaT)CCTCTC-LysNH2]”, the “melting temperature Tm” value with 5′d(AAAAGGAGAG) worked out at 55 °C; in the data set on 5′d(GAGAGGAAAA) it was 43.5 °C.
Taken in the same sequence, the figures for “H-TTTCCTCTC-LysNH2 [PNA H-TTTCCTCTC-LysNH2]” were 58.5 °C and 40.5 °C.
Regarding “DNA TGTACGTCACAACTA: DNA oligonucleotide 5′-TGTACGTCACAACTA-3′ as first strand of reference duplexes (DNA, backbone and methylation of C not given here) [reference compound]”, the “TM (average of the two methods)” value in the data set with complementary RNA [1] (setting [5]) was determined as 50.0 °C; with complementary DNA (setting [5]) it was 53.5 °C. Moreover, the “TM (melting curve fit)” value in the data set on complementary RNA [1] (setting [6]) was 49.8 °C; in the data set on complementary DNA (setting [6]), 53.6 °C. For the same substance, the figures for the “TM (1/TM versus log concentration)” value in the data set on complementary RNA [1] (setting [7]) and in the data set with complementary DNA (setting [7]) were 50.1 °C and 53.5 °C, respectively. For the same substance, the “ΔG°37 (average of the two methods)” value in the data set on complementary RNA [1] (average of the two methods) was -12.6 kcal/mol; in the data set with complementary DNA (average of the two methods) it was -13.1 kcal/mol. Also, the “ΔH° (average of the two methods)” value was -111.5 kcal/mol in the data set with complementary RNA [1] (average of the two methods) and -98.4 kcal/mol in the data set with complementary DNA (average of the two methods). The “ΔS° (average of the two methods)” value is −318.9 eu in the data set on complementary RNA [1] (average of the two methods) and −275.1 eu in the data set with complementary DNA (average of the two methods). The “ΔG°3 (melting curve fit)” value in the data set with complementary RNA [1] (setting [8]) is reported as −11.8; in the data set with complementary DNA (setting [8]), −12.7. Further, the “ΔS° (melting curve fit)” value with complementary RNA [1] (setting [8]) is given as −264.9 eu; in the data set on complementary DNA (setting [8]), −253.9 eu. The “ΔH° (melting curve fit)” value was -94.0 kcal/mol with complementary RNA [1] (setting [9]) and -91.5 kcal/mol in the data set with complementary DNA (setting [9]). In addition, the “ΔG°37 (1/TM versus log concentration)” value is reported as −13.3 kcal/mol in the data set on complementary RNA [1] (setting [10]) and −13.4 kcal/mol in the data set on complementary DNA (setting [10]). In addition, the entries for the “ΔH° (1/TM versus log concentration)” value in the data set with complementary RNA [1] (setting [10]) and in the data set on complementary DNA (setting [10]) were −128.9 kcal/mol and −105.3 kcal/mol, respectively. Further, the “ΔS° (1/TM versus log concentration)” value is −372.8 eu with complementary RNA [1] (setting [10]) and −296.2 eu with complementary DNA (setting [10]). Besides, the Kd in data set [2] was 2 nM. For the same substance, the “Melting temperature Tm, DNA:RNA” value in the data set with complementary RNA [3] was found to be 50.6 °C. Moreover, the “Melting temperature Tm, DNA:DNA” value in data set [4] came to 53.3 °C.
